Test results as given in patent US20230364243A1, “CANCER-SELECTIVE TARGET DEGRADATION BY TARGETING GROUP CAGED PROTACS” (Beth Israel Deaconess Medical Center, Inc., priority 2021, published 2023).

Key:
MEK1 and MEK2 = assay: Western blot analysis of MEK1 and MEK2 levels in HT29 and SK-MEL-28 cells; format: cell-based; conditions: HT29 and SK-MEL-28 cells, dose- and time-dependent
Experimental: (§1) For folic acid competitive degradation assay, cells were pretreated with folic acid (F8758, Sigma-Aldrich, 2.5 mM) for 2 hours, followed by the treatment of indicated PROTACs for indicated time. For endocytosis inhibition, cells were pretreated with Pitostop 2 (SML1169, Sigma-Aldrich, 1-30 μM) or MCD (21633, Cayman, 0.03-1 mM) for 12 hours, followed by co-treatment with indicated PROTACs for another 12 hours. For proteasome or E3 ligase inhibition assay, cells were treated with MG132 (BML-P11020, ENZO Life Sciences, 10 μM) or MLN4924 (S7109, SelleckChem, 1 μM) another 12 hours. For GSH-stimulating assay, cells were treated with S-Acetyl-GSH (29624, Cayman, 1 mM) with indicated PROTACs for 12 or 72 hours.
(§2) Cells were lysed in EBC buffer (50 mM Tris pH 7.5, 120 mM NaCl, 0.5% NP-40) supplemented with protease inhibitors (Pierce) and phosphatase inhibitors (phosphatase inhibitor cocktail set I and II, Calbiochem). The protein concentrations of the lysates were measured using the Bio-Rad protein assay reagent on a Beckman Coulter DU-800 spectrophotometer. The lysates were then resolved by SDS-PAGE and immunoblotted with indicated antibodies.
(§3) Cells were lysed in EBC buffer (50 mM Tris-HCl pH 7.5, 120 mM NaCl and 0.5% NP-40) supplemented with protease inhibitors (Pierce) and phosphatase inhibitors (phosphatase inhibitor cocktailset I and II, Calbiochem). The protein concentrations of the lysates were measured using the Bio-Rad protein assay reagent on a Beckman Coulter DU-800 spectrophotometer. The lysates (40 μg protein) werethen resolved by 10% SDS-olyacrylamide gel electrophoresis (PAGE) at 130 V for 80 min and immunoblotted with indicated antibodies at 4° C. overnight, washed four times with Tris-buffered saline with 0.1% Tween-20 (TBST) buffer, incubated with secondary antibody for 1 hour at room temperature, and then washed 4 times with TBST.

[1] = Release of active compound after incubation with DTT in PBS at 37° C., HPLC analysis; format: physicochemical; conditions: 37° C. in PBS; for release of MS4048 after DTT treatment: DTT (10 equiv), HPLC
Experimental: FA-S2-POMA and the negative control FA-C2-POMA were incubated with dithiothreitol (DTT) under physiological conditions (37° C. in phosphate buffered saline (PBS)) and then subjected to HPLC analysis.
The effects of these folate caged PROTACS on ALK fusion protein degradation was assessed in cancer cells. FA-S2-MS4048 and FA-C2-MS4048 were incubated with DTT at 37° C. in PBS. […] Furthermore, compared to FA-S2-POMA (FIG. 11B), the release rate of FA-S2-MS4048 is slower.

NPM-ALK fusion protein = target: T1, NPM-ALK fusion protein (Homo sapiens, UniProt Q9UM73); assay: Western blot analysis of NPM-ALK fusion protein in SU-DHL-1 cells; format: cell-based; conditions: for DC50: read-out: DC50 of NPM-ALK fusion protein degradation; for effect in degrading NPM-ALK fusion protein after pretreatment with folic acid: free folic acid pretreatment
T1 construct: endogenous in cells; host or cells: SU-DHL-1; the other entry of the earlier key: NPM1 (P06748, Nucleophosmin)
Experimental: as §1, §2, §3

SU-DHL-1 cells = assay: Cell viability of SU-DHL-1 cells (CCK-8); format: cell-based; conditions: 72 hours; for IC50: Homo sapiens, read-out: IC50 cell viability / proliferation
Experimental: as §1
Cell in 96-well plates were treated with drugs as indicated, and then incubated with 10 μl/well of CCK-8 (cell counting Kit-8) solution at for 1-2 hours, followed by the measurement of optical density at 450 nm.

EML4-ALK fusion protein = target: T2, EML4-ALK fusion protein (Homo sapiens, UniProt Q9UM73); assay: Western blot analysis of EML4-ALK fusion protein in NCI-H2228 and NCI-H3122 NSCLC cells; format: cell-based
T2 construct: endogenous in cells; host or cells: NCI-H2228, NCI-H3122; the other entry of the earlier key: EML4 (Q9HC35, Echinoderm microtubule-associated protein-like 4)
Experimental: as §1, §2, §3

T2 sequence (Q9UM73 1058-1620 limits assumed): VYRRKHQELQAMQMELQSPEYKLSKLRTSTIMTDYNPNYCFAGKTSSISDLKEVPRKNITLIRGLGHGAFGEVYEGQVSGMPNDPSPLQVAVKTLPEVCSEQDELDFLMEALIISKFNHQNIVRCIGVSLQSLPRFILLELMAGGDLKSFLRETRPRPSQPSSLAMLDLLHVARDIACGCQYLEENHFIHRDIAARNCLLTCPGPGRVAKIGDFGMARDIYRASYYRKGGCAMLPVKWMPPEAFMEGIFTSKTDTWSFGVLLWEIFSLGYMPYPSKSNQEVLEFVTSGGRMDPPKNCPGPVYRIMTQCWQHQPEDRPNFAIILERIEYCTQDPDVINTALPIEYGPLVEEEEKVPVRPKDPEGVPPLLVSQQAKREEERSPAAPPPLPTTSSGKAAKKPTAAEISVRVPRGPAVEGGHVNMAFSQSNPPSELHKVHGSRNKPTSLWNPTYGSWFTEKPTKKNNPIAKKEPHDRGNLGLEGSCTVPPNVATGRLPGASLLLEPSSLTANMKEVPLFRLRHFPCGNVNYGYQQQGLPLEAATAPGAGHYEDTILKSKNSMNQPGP
T1 sequence (Q9UM73 with tags, fused parts or gaps): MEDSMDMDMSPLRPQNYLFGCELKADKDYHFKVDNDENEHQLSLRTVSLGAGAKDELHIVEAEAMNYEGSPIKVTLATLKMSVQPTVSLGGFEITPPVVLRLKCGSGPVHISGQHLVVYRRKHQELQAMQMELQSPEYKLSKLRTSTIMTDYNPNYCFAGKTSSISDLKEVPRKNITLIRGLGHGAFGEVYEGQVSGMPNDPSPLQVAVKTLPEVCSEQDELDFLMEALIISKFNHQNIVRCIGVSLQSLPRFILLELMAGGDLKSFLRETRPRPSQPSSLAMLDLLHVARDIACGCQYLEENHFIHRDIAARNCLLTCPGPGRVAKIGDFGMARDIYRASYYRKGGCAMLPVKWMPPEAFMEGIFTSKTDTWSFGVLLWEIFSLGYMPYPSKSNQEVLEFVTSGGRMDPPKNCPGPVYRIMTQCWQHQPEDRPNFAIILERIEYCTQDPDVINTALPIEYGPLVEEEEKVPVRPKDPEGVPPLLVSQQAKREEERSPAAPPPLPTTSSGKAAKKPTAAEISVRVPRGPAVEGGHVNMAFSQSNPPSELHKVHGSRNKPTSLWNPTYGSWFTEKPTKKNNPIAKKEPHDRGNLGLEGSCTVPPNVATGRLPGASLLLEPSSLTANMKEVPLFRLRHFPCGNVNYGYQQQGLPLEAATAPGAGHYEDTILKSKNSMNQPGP

Row | SMILES | release of MS4048 after DTT treatment [1] | degradation of NPM-ALK fusion protein (NPM-ALK fusion protein; SU-DHL-1 cells) | IC50 (SU-DHL-1 cells) [µM] | DC50 (NPM-ALK fusion protein; SU-DHL-1 cells, 12 hours) [µM] | effect in degrading NPM-ALK fusion protein after pretreatment with folic acid (NPM-ALK fusion protein; SU-DHL-1 cells) | degradation of EML4-ALK fusion proteins (EML4-ALK fusion protein) | also measured
1 | Cc1ncsc1-c1ccc([C@H](C)NC(=O)[C@@H]2C[C@@H](NC(=O)CCCCn3cc(CNC(=O)CC[C@H](NC(=O)c4ccc(NCc5cnc6nc(N)[nH]c(=O)c6n5)cc4)C(=O)O)nn3)CN2C(=O)[C@@H](NC(=O)CCCCCCCCCCNCCCONC(=O)c2ccc(F)c(F)c2Nc2ccc(I)cc2F)C(C)(C)C)cc1 [Folate-MS432N, N^2-(4-(((2-amino-4-oxo-3,4-dihydropteridin-6-yl)methyl)amino)benzoyl)-N^5-((1-(5-(((3R,5S)-1-((S)-2-(11-((3-((3,4-difluoro-2-((2-fluoro-4-iodophenyl)amino)benzamido)oxy)propyl)amino)undecanamido)-3,3-dimethylbutanoyl)-5-(((S)-1-(4-(4-methylthiazol-5-yl)phenyl)ethyl)carbamoyl)pyrrolidin-3-yl)amino)-5-oxopentyl)-1H-1,2,3-triazol-4-yl)methyl)-L-glutamine] |  |  |  |  |  |  | degradation of MEK1 and MEK2 (MEK1 and MEK2): could not do so
2 | Cc1cc(Nc2ncc(Cl)c(Nc3ccccc3S(=O)(=O)C(C)C)n2)c(OC(C)C)cc1C1CCN(CC(=O)NCCNc2cccc3c2C(=O)N(C2CCC(=O)N(C(=O)OCCCCCCn4cc(CNC(=O)CC[C@H](NC(=O)c5ccc(NCc6cnc7nc(N)[nH]c(=O)c7n6)cc5)C(=O)O)nn4)C2=O)C3=O)CC1 (stereo partly drawn) [FA-C2-MS4048, N^2-(4-(((2-amino-4-oxo-3,4-dihydropteridin-6-yl)methyl)amino)benzoyl)-N^5-((1-(6-((3-(4-((2-(2-(4-(4-((5-chloro-4-((2-(isopropylsulfonyl)phenyl)amino)pyrimidin-2-yl)amino)-5-isopropoxy-2-methylphenyl)piperidin-1-yl)acetamido)ethyl)amino)-1,3-dioxoisoindolin-2-yl)-2,6-dioxopiperidine-1-carbonyl)oxy)hexyl)-1H-1,2,3-triazol-4-yl)methyl)-L-glutamine] | no release of MS4048 | had some degradation effect | 9.5 |  |  |  | 
3 | Cc1cc(Nc2ncc(Cl)c(Nc3ccccc3S(=O)(=O)C(C)C)n2)c(OC(C)C)cc1C1CCN(C(=O)CCCC(=O)N[C@H](C(=O)N2C[C@H](NC(=O)CCCCn3cc(CNC(=O)CC[C@H](NC(=O)c4ccc(NCc5cnc6nc(N)[nH]c(=O)c6n5)cc4)C(=O)O)nn3)C[C@H]2C(=O)N[C@@H](C)c2ccc(-c3scnc3C)cc2)C(C)(C)C)CC1 [Folate-MS99N, N^2-(4-(((2-amino-4-oxo-3,4-dihydropteridin-6-yl)methyl)amino)benzoyl)-N^5-((1-(5-(((3R,5S)-1-((S)-2-(5-(4-(4-((5-chloro-4-((2-(isopropylsulfonyl)phenyl)amino)pyrimidin-2-yl)amino)-5-isopropoxy-2-methylphenyl)piperidin-1-yl)-5-oxopentanamido)-3,3-dimethylbutanoyl)-5-(((S)-1-(4-(4-methylthiazol-5-yl)phenyl)ethyl)carbamoyl)pyrrolidin-3-yl)amino)-5-oxopentyl)-1H-1,2,3-triazol-4-yl)methyl)-L-glutamine] |  |  |  |  |  |  | degrading NPM-ALK (NPM-ALK fusion protein; SU-DHL-1 cells, even at 3 μM): incapable of degrading NPM-ALK
4 | Cc1cc(Nc2ncc(Cl)c(Nc3ccccc3S(=O)(=O)C(C)C)n2)c(OC(C)C)cc1C1CCN(C(=O)CCCC(=O)N[C@H](C(=O)N2C[C@H](OC(=O)CCCCn3cc(CNC(=O)CC[C@H](NC(=O)c4ccc(NCc5cnc6nc(N)[nH]c(=O)c6n5)cc4)C(=O)O)nn3)C[C@H]2C(=O)N[C@@H](C)c2ccc(-c3scnc3C)cc2)C(C)(C)C)CC1 [Folate-MS99, N^2-(4-(((2-amino-4-oxo-3,4-dihydropteridin-6-yl)methyl)amino)benzoyl)-N^5-((1-(5-(((3R,5S)-1-((S)-2-(5-(4-(4-((5-chloro-4-((2-(isopropylsulfonyl)phenyl)amino)pyrimidin-2-yl)amino)-5-isopropoxy-2-methylphenyl)piperidin-1-yl)-5-oxopentanamido)-3,3-dimethylbutanoyl)-5-(((S)-1-(4-(4-methylthiazol-5-yl)phenyl)ethyl)carbamoyl)pyrrolidin-3-yl)oxy)-5-oxopentyl)-1H-1,2,3-triazol-4-yl)methyl)-L-glutamine] |  | degraded NPM-ALK fusion protein efficiently | 0.2 | 0.1 | antagonized the effect | efficiently degraded the EML4-ALK fusion proteins | effect in degrading EML4-ALK fusion protein after pretreatment with free folic acid (EML4-ALK fusion protein; free folic acid pretreatment): antagonized the effect
5 | Cc1cc(Nc2ncc(Cl)c(Nc3ccccc3S(=O)(=O)C(C)C)n2)c(OC(C)C)cc1C1CCN(CC(=O)NCCNc2cccc3c2C(=O)N(C2CCC(=O)N(C(=O)OCCSSCCn4cc(CNC(=O)CC[C@H](NC(=O)c5ccc(NCc6cnc7nc(N)[nH]c(=O)c7n6)cc5)C(=O)O)nn4)C2=O)C3=O)CC1 (stereo partly drawn) [FA-S2-MS4048, N^2-(4-(((2-amino-4-oxo-3,4-dihydropteridin-6-yl)methyl)amino)benzoyl)-N^5-((1-(2-((2-((3-(4-((2-(2-(4-(4-((5-chloro-4-((2-(isopropylsulfonyl)phenyl)amino)pyrimidin-2-yl)amino)-5-isopropoxy-2-methylphenyl)piperidin-1-yl)acetamido)ethyl)amino)-1,3-dioxoisoindolin-2-yl)-2,6-dioxopiperidine-1-carbonyl)oxy)ethyl)disulfanyl)ethyl)-1H-1,2,3-triazol-4-yl)methyl)-L-glutamine] | efficient release of MS4048 | effectively degraded | 0.465 |  | blocked the effect | effectively degraded | release rate compared to FA-S2-POMA ([1]; DTT): slower; potency in degrading the ALK proteins compared with FA-C2-MS4048 (NPM-ALK fusion protein; ALK fusion proteins): more potent than FA-C2-MS4048; potency in degrading the proteins of interest compared with MS4048 (NPM-ALK fusion protein; ALK fusion proteins): less potent than its uncaged analog, MS4048; time at which significant degradation was observed (NPM-ALK fusion protein; SU-DHL-1 cells, 3 μM): ≤ 1 h; effect on degrading NPM-ALK after depletion of endogenous CRBN E3 ligase (NPM-ALK fusion protein; SU-DHL-1 cells, 3 μM, 12 hours): significantly reduced the effect; effect on degrading NPM-ALK after knockdown of FOLR1 via shRNAs (NPM-ALK fusion protein; SU-DHL-1 cells, 3 μM, 12 hours): completely abolished the effect; degradation of NPM-ALK with MG132 or MLN4924 (NPM-ALK fusion protein; SU-DHL-1 cells, 10 μM MG132 or 1 μM MLN4924): blocked the degradation of NPM-ALK; potency in degrading NPM-ALK after pretreatment with S-Ac-GSH (NPM-ALK fusion protein; SU-DHL-1 cells, S-Ac-GSH 1 mM): significant increase in potency; potency in inhibiting proliferation after pretreatment with folic acid (SU-DHL-1 cells; 2.5 mM folic acid): significantly reduced potency; potency in inhibiting proliferation after pretreatment with S-Ac-GSH (SU-DHL-1 cells; S-Ac-GSH 1 mM): significantly increased potency; degradation of EML4-ALK with MG132 or MLN4924 (EML4-ALK fusion protein; MG132 or MLN4924): blocked the degradation
6 | Cc1cc(Nc2ncc(Cl)c(Nc3ccccc3S(=O)(=O)C(C)C)n2)c(OC(C)C)cc1C1CCN(C(=O)CCCC(=O)N[C@H](C(=O)N2C[C@H](O)C[C@H]2C(=O)N[C@@H](C)c2ccc(-c3scnc3C)cc2)C(C)(C)C)CC1 [MS99, (2S,4R)-1-((S)-2-(5-(4-(4-((5-chloro-4-((2-(isopropylsulfonyl)phenyl)amino)pyrimidin-2-yl)amino)-5-isopropoxy-2-methylphenyl)piperidin-1-yl)-5-oxopentanamido)-3,3-dimethylbutanoyl)-4-hydroxy-N-((S)-1-(4-(4-methylthiazol-5-yl)phenyl)ethyl)pyrrolidine-2-carboxamide] |  | degraded NPM-ALK fusion protein efficiently | 0.0914 | 0.03 |  |  | 
